According to US9321808B2, “Homo- and heterodimeric SMAC mimetic compounds as apoptosis inducers” (BioNTech AG, priority 2012, dated 2016):
Read-outs that look alike come from different tables or passages of the source.

B1: mature Smac protein: "second mitochondria-derived activator of caspases"; "N-terminal mitochondrial targeting sequence that is proteolytically removed during maturation to the mature polipeptide" (protein, UniProt Q9NR28 22-239, looked up)
Diablo IAP-binding …: LCVPVVANFKKRCFSELIRPWHKTVTIGFGVTLCAVPIAQKSEPHSLSSEALMRRAVSLVTDSTSTFLSQTTYALIEAITEYTKAVYTLTSLYRQYTSLLGKMNSEEEDEVWQVIIGARAEMTSKHQEYLKLETTWMTAVGLSEMAAEAAYQTGADQASITARNHIQLVKLQVEEVHQLSRKAETKLAEAQIEELRQKTQEEGEERAESEQEAYLRED

Legend:
human XIAP BIR3 domain = target: T1, human XIAP BIR3 domain (Homo sapiens, UniProt P98170); assay: Fluorescence polarization competitive binding, XIAP BIR3; conditions: displacement of FITC-SMAC probe from XIAP BIR3-His-tag (60 nM); average of three independent measurements
T1 construct: human XIAP BIR3 domain from residue 241 to 356; made in house; host or cells: Escherichia coli BL21
T1 sequence (P98170 241-356): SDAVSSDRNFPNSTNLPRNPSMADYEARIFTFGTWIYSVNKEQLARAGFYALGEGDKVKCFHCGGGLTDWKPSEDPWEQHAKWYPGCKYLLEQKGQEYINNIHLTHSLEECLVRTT
Experimental: (§1) Data were analyzed using Prism 4.0 software (Graphpad Software).

[1] = target: T2, human XIAP linker-BIR2-BIR3 (Homo sapiens, UniProt P98170); assay: Fluorescence polarization competitive binding, XIAP linker-BIR2-BIR3; conditions: displacement of SMAC-1F probe (1 nM) from XIAP linker-BIR2-BIR3-His-tag (3 nM); average of three independent measurements
T2 construct: human XIAP from residue 124 to 356 (linker-BIR2-BIR3); made in house; host or cells: Escherichia coli BL21
T2 sequence (P98170 124-356): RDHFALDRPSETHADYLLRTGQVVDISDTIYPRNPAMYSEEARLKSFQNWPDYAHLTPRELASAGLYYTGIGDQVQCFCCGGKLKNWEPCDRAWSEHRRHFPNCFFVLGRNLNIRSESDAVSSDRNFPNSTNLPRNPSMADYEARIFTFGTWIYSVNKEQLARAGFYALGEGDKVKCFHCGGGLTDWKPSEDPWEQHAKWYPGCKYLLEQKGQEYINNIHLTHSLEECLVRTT
Experimental: as §1

cIAP1-BIR3 = target: T3, cIAP1-BIR3 (Homo sapiens, UniProt Q13490); assay: Fluorescence polarization binding, cIAP1 BIR3; conditions: displacement of fluorescent probe (2 nM) from cIAP1-BIR3 (10 nM); average of three independent measurements; read-out: cIAP1 IC50(av)
T3 construct: 6xHis (C); made in house; host or cells: Escherichia coli BL21(DE3)
T3 sequence (Q13490 251-363): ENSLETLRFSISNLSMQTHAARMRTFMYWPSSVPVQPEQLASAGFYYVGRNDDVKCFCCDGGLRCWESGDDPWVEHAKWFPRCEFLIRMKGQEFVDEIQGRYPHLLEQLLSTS
Experimental: (§2) The plasmids were used to transform Escherichia coli strain BL21(DE3). The recombinant proteins were purified using Ni-NTA (His-trap FFcrude, Ge-Healthcare), followed by gel filtration (Superdex 200, Ge-Healthcare). The recombinant proteins were eluted in 20 mM Tris pH 8.0, 250 mM NaCl and 10 mM DTT. Aliquoted proteins were conserved at −80° C.
(§3) The fluorescently-labelled Smac peptide (AbuRPF-K(5-Fam)-N1-12, final concentration of 2 nM), and increasing concentrations of cIAP1- and cIAP2-BIR3 from 0 to 20 μM, were added to an assay buffer consisting of 100 mM potassium phosphate, pH 7.5, 100 μg/ml bovine γ-globulin, 0.02% sodium azide. […] All experiments were performed in black, flat-bottom 96-well microplates (Greiner bio-one). 4-substituted azabicyclo[5.3.0]alkane Smac-mimetics were evaluated for their ability to displace the fluorescent probe from recombinant protein. […] After 15 minutes mixing on a shaker, and 3 hours incubation at room temperature, fluorescent polarization was measured on the Ultra plate reader (Tecan).

cIAP2-BIR3 = target: T4, cIAP2-BIR3 (Homo sapiens, UniProt Q13489); assay: Fluorescence polarization binding, cIAP2 BIR3
T4 construct: 6xHis (C); made in house; host or cells: Escherichia coli BL21(DE3)
T4 sequence (Q13489 237-349): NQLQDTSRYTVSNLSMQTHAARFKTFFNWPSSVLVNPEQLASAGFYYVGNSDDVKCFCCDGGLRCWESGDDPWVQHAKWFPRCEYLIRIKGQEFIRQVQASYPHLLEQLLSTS
Experimental: as §2, §3

[2] = test system: MDA-MB-231 (breast epithelial adenocarcinoma); assay: Standalone cytotoxicity, MTT assay, MDA-MB-231; format: cell-based, human; conditions: reported as activity range, read-out: MDA-MB-231 IC50 (μM ± standard Deviation)
Experimental: (§4) Human cell lines MDA-MB-231 (breast epithelial adenocarcinoma), HL-60 (promieloblast cells) and PC-3 (prostate adenocarcinoma cells) were purchased from Istituto Zooprofilattico di Brescia (www.bs.izs.it). Reagents for cell culture were purchased from Sigma, unless otherwise indicated. Cells were grown on Plastic Petri dishes (Falcon) in RPMI 1640 medium supplemented with 2 mM L-glutamine, Penicillin (100 U/mL)/Streptomicin (100 μg/mL), 10% Fetal Bovine Serum. A sub-cultivation ratio of 1:4 was used. Cells were maintained at 37° C. in an atmosphere of 95% air and 5% CO2.
(§5) Cells were seeded in 96-well flat bottom cell culture plates at a density of 5000 cells/well in 100 μL of culture medium. HL-60 cells were immediately stimulated with the indicated compounds for 96 hours in the incubator. MDA-MB-231 and PC-3 cells were allowed to adhere for 24 hours. prior to be exposed to the compounds for 96 hours in the incubator. Cells were exposed to the following concentrations of the compounds: 50 nM, 100 nM, 200 nM, 500 nM, 1 μM, 5 μM, 10 μM, 50 μM and 100 μM. Each point was done in triplicate. The cellular growth inhibitory effect of our compounds was evaluated using the MTT assay (Sigma). After 96 hours of treatment, 10 μL of MTT reagent solution (5 mg of MTT powder/mL diluted in Phosphate Buffer Salt saline solution) were added in each well and allowed to react for 3 hours in the incubator. After 3 hours cells were solubilized in Lysis Buffer (10% SDS/0.1% HCl in water, 100 μL for each well) for 24 hours at 37° C. Finally, the absorbance was measured at 570 nm using a multiplate reader. Absorbance values were collected and IC50 values were determined using GraphPad Prism5 software. The experiments were repeated twice.
(§6) After 96 hours of treatment, 10 μl of MTT reagent solution (5 mg of MTT powder/ml diluted in Phosphate Buffer Salt saline solution) were added in each well and allowed to react for 3 hours in the incubator. After 3 hours cells were solubilized in Lysis Buffer (10% SDS/0.1% HCl in water, 100 μl for each well) for 24 hours at 37° C. Finally, the absorbance was measured at 570 nm using a multiplate reader. Absorbance values were collected and IC50/IC80 values were determined using GraphPad Prism5 software.

[3] = test system: HL-60 (promieloblast cells); assay: Standalone cytotoxicity, MTT assay, HL-60; format: cell-based, human; conditions: reported as activity range, read-out: HL-60 IC50 (μM ± standard Deviation)
Experimental: as §4
as §5, with “The experiments were repeated twice.” left out
as §6, with “After 3 hours cells were solubilized in Lysis Buffer (10% SDS/0.1% HCl in water, 100 μl for each well) for 24 hours at 37° C.” left out

[4] = test system: PC-3 (prostate adenocarcinoma cells); assay: Standalone cytotoxicity, MTT assay, PC-3; format: cell-based, human; conditions: 96 hours treatment, reported as activity range, read-out: PC-3 IC50 (μM ± standard Deviation)
Experimental: as §4
as §5, with “The experiments were repeated twice.” left out
as §6, with “After 3 hours cells were solubilized in Lysis Buffer (10% SDS/0.1% HCl in water, 100 μl for each well) for 24 hours at 37° C.” left out

[5] = test system: IGROV-1 human ovarian carcinoma xenografted i.p.; assay: Ovarian tumor i.p. xenograft, survival; format: in vivo, athymic nude mice; conditions: 5 mg/kg, qdx4-5/wx2-3w, IGROV-1 i.p.
Experimental: (§7) All experiments of antitumor activity were carried out using female athymic Swiss nude mice, 8-10 weeks-old (Charles River, Calco, Italy). Mice were maintained in laminar flow rooms keeping temperature and humidity constant. Mice had free access to food and water. Experiments were approved by the Ethics Committee for Animal Experimentation of the Istituto Nazionale Tumori of Milan according to institutional guidelines.
(§8) Chem. Soc. […] The drugs were delivered i.p. in a volume of 10 ml/Kg of body weight.
The IGROV-1 tumor was adapted to grow in the peritoneal cavity (i.p.) and maintained by serial i.p. passages of ascitic cells into healthy mice. In this tumor model, hemorrhagic ascites with diffuse peritoneal carcinomatosis develops and the animal eventually die. For evaluation of antitumor activity, 2.5×10^6 ascitic cells in 0.2 ml of saline were injected i.p. into mice. Locoregional administration was employed. […] For antitumor activity studies, experimental groups were inspected daily and weighed three times weekly. Prior to impending death, mice were sacrificed by cervical dislocation and day of sacrifice was considered as day of death and the median survival time (MST) was calculated for each group. Antitumor activity was assessed as T/C %, i.e., the ratio of MST in treated mice over that of control mice×100. For statistical analysis, percent survivorship over time was estimated by the Kaplan-Meier product method and compared using the log-rank test.
Treatment started the day after tumor cell inoculation.

[6] = test system: IGROV-1 human ovarian carcinoma xenografted s.c.; conditions: for TVI %, tumor volume inhibition % in treated over control mice: IGROV-1 s.c., assessed 7 days after last treatment
Experimental: as §7, §8
For subcutaneous (s.c.) growth, exponentially growing tumor cells (5×10^6 cells/mouse) were s.c. injected into the right flank of athymic nude mice. The tumor line was achieved by serial s.c. passages of fragments (about 2×2×6 mm) from regrowing tumors into healthy mice. Groups of five mice bearing bilateral s.c. tumors were employed. Tumor fragments were implanted on day 0 and tumor growth was followed by biweekly measurements of tumor diameters with a Vernier caliper. […] Treatment started three days after tumor implant, when tumors were just palpable. […] The toxicity of the drug treatment was determined as body weight loss and lethal toxicity. Deaths occurring in treated mice before the death of the first control mouse were ascribed to toxic effects. Student t test (two tailed) exact test was used for statistical comparison of tumor volumes in mice.

XIAP = XIAP (Homo sapiens, UniProt P98170); conditions: technical background; read-out: Kd, binding to XIAP; cited from earlier work
Chain of XIAP (P98170 whole entry): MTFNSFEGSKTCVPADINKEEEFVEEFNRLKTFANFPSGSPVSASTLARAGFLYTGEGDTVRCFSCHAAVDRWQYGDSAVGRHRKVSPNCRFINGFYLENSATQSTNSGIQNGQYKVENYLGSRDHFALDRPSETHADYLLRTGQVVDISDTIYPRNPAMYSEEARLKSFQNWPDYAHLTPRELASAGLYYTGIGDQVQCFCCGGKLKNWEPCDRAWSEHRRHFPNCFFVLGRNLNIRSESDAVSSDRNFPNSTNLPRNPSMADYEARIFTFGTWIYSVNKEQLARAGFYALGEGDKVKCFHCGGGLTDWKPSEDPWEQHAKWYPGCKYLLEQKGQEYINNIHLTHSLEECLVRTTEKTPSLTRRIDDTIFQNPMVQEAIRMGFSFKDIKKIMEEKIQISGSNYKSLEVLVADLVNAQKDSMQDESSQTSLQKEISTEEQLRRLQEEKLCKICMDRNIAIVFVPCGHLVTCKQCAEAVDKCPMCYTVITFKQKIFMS

[7] = displacement of fluorescent probe (2 nM) from cIAP2 (25 nM), average of three independent measurements, read-out: cIAP2 IC50(av)
[8] = Homo sapiens, MDA-MB-231, 96 hours treatment

Molecule	IC50 (human XIAP BIR3 domain) [nM]	IC50 [1] [nM]	IC50 (cIAP1-BIR3) [nM]	IC50 (cIAP2-BIR3; [7]) [nM]	IC50 [2, 8] [µM]	MST, median survival time [5] [days]	Range of the days of death [5] [days]	TVI %, tumor volume inhibition % in treated over control mice ([6]; i.p., 5 mg/kg, qdx4-5/wx3w) [%]	further results
CC[C@H](NC)C(=O)N[C@@H]1C(=O)N2[C@@H](CC[C@@H]1CNC(=O)CCc1cn(CCOCCOCCOCCNC(=O)[C@@H](NC(=O)[C@@H]3CC[C@@H]4CC[C@H](CO)[C@H](NC(=O)[C@H](CC)NC)C(=O)N43)c3ccccc3)nn1)CC[C@H]2C(=O)NC(c1ccccc1)c1ccccc1 [Compound 34a]	31.1	0.11	3.2	0.3	10 to 50				
CC[C@H](NC)C(=O)N[C@@H]1C(=O)N2[C@@H](CC[C@@H]1CO)CC[C@H]2C(=O)N[C@@H](c1ccccc1)c1cn(CCCCc2ccc(CCCCn3cc([C@@H](NC(=O)[C@@H]4CC[C@@H]5CC[C@H](CO)[C@H](NC(=O)[C@H](CC)NC)C(=O)N54)c4ccccc4)nn3)cc2)nn1 [Compound 28a]					< 1	36	28 to 56	66	IC50 (cIAP2-BIR3): 2.5 nM; IC50 ([3]; Homo sapiens, HL-60, 96 hours treatment): < 1 µM; IC50 ([4]; Homo sapiens): > 50 µM; Tolerability ([6]; i.p., 5 mg/Kg, qdx5/wx3): well tolerated; Tox, dead/treated mice ([6]; i.p., 5 mg/kg, qdx4-5/wx3w): 0/4; BWL %, body weight loss % induced by treatment ([6]; i.p., 5 mg/kg, qdx4-5/wx3w, the highest change is reported): 2%
CC[C@H](NC)C(=O)N[C@@H]1C(=O)N2[C@@H](CC[C@@H]1CO)CC[C@H]2C(=O)N[C@H](C(=O)NCCCCNc1c(NCCCCNC(=O)[C@@H](NC(=O)[C@@H]2CC[C@@H]3CC[C@H](CO)[C@H](NC(=O)[C@H](CC)NC)C(=O)N32)c2ccccc2)c(=O)c1=O)c1ccccc1 [Compound 30b]	26.7	0.8	2.6	2.9	10 to 50				
CN[C@@H](C)C(=O)N[C@H]1CCCC[C@H]2CC[C@@H](C(=O)N[C@@H](c3ccccc3)c3cn(CCCCc4ccc(CCCCn5cc([C@@H](NC(=O)[C@@H]6CC[C@@H]7CCCC[C@H](NC(=O)[C@H](C)NC)C(=O)N76)c6ccccc6)nn5)cc4)nn3)N2C1=O [SM164, reference compound]			0.46			37	24 to 49	0	IC50 ([2]; 96 hours treatment): < 1 µM; IC50 ([3]; 96 hours treatment): < 1 µM; IC50 [4]: 10 to 50 µM; BWL %, body weight loss % induced by treatment ([6]; mouse, in vivo, ip, 5 mg/kg): 5%
B1									Kd (XIAP): 420 nM
